Data set [1] has as its system tremor in mice. The experiment in a line: Induction of tremor in mice. The following applies: sc.
Data set [2] has as its target M2-receptor of rat cerebellum (Rattus norvegicus, UniProt P10980). As to the kind of experiment: biochemical. It counts as binding.
Data set [3] deals with T1, M1-receptor of rat cerebral cortex (Rattus norvegicus, UniProt P08482).
T1 construct: M1 -receptor of rat cerebral cortex; from tissue; host or cells: rat cerebral cortex (membranes of rat brain)
T1 sequence (P08482 1-460): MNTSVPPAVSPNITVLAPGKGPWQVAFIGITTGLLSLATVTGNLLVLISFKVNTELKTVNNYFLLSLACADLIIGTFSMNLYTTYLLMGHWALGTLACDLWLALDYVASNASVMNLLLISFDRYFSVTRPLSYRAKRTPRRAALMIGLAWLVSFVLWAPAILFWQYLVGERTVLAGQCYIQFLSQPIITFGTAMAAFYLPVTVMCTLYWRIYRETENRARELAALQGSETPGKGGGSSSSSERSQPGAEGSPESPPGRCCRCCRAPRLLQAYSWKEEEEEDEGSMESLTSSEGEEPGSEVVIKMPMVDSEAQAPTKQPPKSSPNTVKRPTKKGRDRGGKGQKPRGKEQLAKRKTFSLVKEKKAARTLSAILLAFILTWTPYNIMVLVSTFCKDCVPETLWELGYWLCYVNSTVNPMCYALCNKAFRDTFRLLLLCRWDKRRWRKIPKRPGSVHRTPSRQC
As to the kind of experiment: Affinity for muscarinic receptor: [3H]pirenzepine binding to M1-receptor of rat cerebral cortex.

Where two headings read alike, the source gives them in different places. Bounds are passed on as bounds.

M2-receptor of rat cerebellum, sequence (P10980 whole entry): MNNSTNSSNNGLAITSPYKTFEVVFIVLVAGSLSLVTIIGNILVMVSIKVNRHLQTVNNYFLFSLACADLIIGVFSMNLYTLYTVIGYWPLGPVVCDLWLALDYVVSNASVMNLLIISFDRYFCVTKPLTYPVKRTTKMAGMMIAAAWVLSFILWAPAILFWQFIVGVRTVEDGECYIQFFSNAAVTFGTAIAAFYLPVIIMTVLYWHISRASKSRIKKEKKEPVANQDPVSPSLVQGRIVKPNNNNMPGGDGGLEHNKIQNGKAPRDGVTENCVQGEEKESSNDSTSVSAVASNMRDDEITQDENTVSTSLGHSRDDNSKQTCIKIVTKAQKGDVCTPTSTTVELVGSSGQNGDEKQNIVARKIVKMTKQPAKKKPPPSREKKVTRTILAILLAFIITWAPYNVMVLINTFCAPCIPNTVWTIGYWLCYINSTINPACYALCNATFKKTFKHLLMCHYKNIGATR

In the case of `COC(=O)C1=CCCN(C)C1` [Arecoline, reference compound], the “Dose, the effect of the above 2) (minimum effective dose for causing tremor)” value (shortened to “Dose, the effect”) in data set [1] turned out to be 5 mg/kg.

As for `C=C1CC2(CCN(C)CC2)OC1C` (centres unmarked) [Example 5, 2,8-dimethyl-3-methylene-1-oxa-8-azaspiro[4,5]decane], the IC50 in data set [2] turned out to be 25100 nM; in data set [3], 3320 nM. In addition, the “Dose, the effect” value in data set [1] is given as > 30 mg/kg.

As to `CCC1OC2(CCN(C)CC2)CC1=O` (centres unmarked) [Example 15, 2-ethyl-8-methyl-1-oxa-8-azaspiro[4.5]decan-3-one], the “Dose, the effect” value in data set [1] is recorded as > 30 mg/kg.

Take `CCC1OC2(CCN(C)CC2)CC12OCCS2` (centres unmarked) [Example 29, 14-ethyl-10-methyl-1,13-dioxa-4-thia-10-azadispiro[4.1.5.2]tetradecane]: the concentration for half-maximal inhibition (IC50) in data set [2] worked out at 640 nM; in data set [3] it was 49 nM. Moreover, in data set [1], the “Dose, the effect” value is given as > 30 mg/kg.

For the compound `CC1SC2(CCN(C)CC2)CC12SCCS2` (centres unmarked) [Example 22, 10,14-Dimethyl-1,4,13-trithia-10-azadispiro[4.1.5.2]tetradecane], the IC50 in data set [2] amounted to 710 nM; in data set [3], 39 nM. In data set [1], the “Dose, the effect” value was > 30 mg/kg.

`O=C1CCCN1CC#CCN1CCCC1` [Oxotremorine, reference compound]: the figures for the IC50 in data set [2] and in data set [3] were 4.9 nM and 68 nM, respectively. The “Dose, the effect” value in data set [1] was determined as 0.2 mg/kg.

Consider `C=C1CC2(CCN(C)CC2)OC1CC` (centres unmarked) [Example 36, 2-Ethyl-8-methyl-3-methylene-1-oxa-8-azaspiro[4.5]decane], for which the IC50 in data set [2] was found to be 8960 nM; in data set [3] ([3H]pirenzepine, M1-receptor, rat cerebral cortex, read-out: Receptor-affinity IC50, Pirenzepine binding), 1260 nM. Moreover, in data set [1], the “Dose, the effect” value is reported as > 30 mg/kg.

For the compound `CC1OC2(CN3CCC2CC3)CC12SCCS2` (single isomer, unassigned) [Example 33, 5'-Methyl-dispiro[1-azabicyclo[2.2.2]octane-3,2'-oxolane-4',2"-[1.3]dithiolane]], the concentration for half-maximal inhibition (IC50) in data set [2] was 310 nM; in data set [3], 17 nM. Further, in data set [1], the “Dose, the effect” value is listed as > 30 mg/kg.

Source of the values: patent US5041549A, “Heterocyclic spiro compounds and methods for preparing the same” (Yamanouchi Pharmaceutical Co., Ltd., priority 1987, dated 1991).
